According to US4333942A, “Anti-depressant and analgesic 4-phenoxypiperidines” (BYK Gulden Lomberg Chemische Fabrik GmbH, priority 1979, dated 1982):
Where two headings read alike, the source gives them in different places.

Experiments:
[1] = system: Reserpine ptosis; test: Antiptotic action (Reserpine antagonism); format: in vivo, female albino mice NMRI; settings: Mus musculus
Description: (§1) All the experiments are carried out on female albino mice NMRI of 20 to 30 g body weight. 5 to 20 animals are employed per dose and the dose/response relationship are determined.
Antiptotic action (Reserpine antagonism)
Subcutaneous administration of 2 mg/kg of reserpine to albino mice causes ptosis in the course of several hours [Reserpine Ptosis, Domenjoz and Theobald (1959), Arch, Int. Pharmacodyn. 120,450]. The test substances are administered to the animals orally in various doses 3 hours before the administration of reserpine. The intensity of ptosis is graded by a rating scale 3-2-1-0 (complete, moderate, slight, no ptosis) in the 2nd, 3rd and 4th hour after administration of the reserpine (that is 5, 6 and 7 hours after administration of the substance). The substances tested antagonize the ptosis according to the dose. The ED50 of the antagonistic action is evaluated in comparison to the daily reserpine control.

[2] = system: acetic acid writhing; test: Acetic acid writhing test (analgesia); format: in vivo, female albino mice NMRI; settings: Mus musculus, read-out: Analgesic action, acetic acid writhing test ED50
Description: as §1
(b) Writhing test (acetic acid writhing): intraperitoneal injection of 0.2 ml/20 g of body weight of mouse of a 0.75% strength acetic acid solution induces in albino mice a typical syndrome proceeding over the body with dorsal flection, called "writhing". These "writhes" (occurring in the course of the first half hour after administration) are counted over a period of 5 to 20 minutes after administration of acetic acid. The substances tested (administered 30 minutes before the acetic acid injection) cause a reduction in the number of writhing syndromes. The dose which reduces the number thereof by 50%, relative to the daily control, is determined. Literature: Koster, Anderson, de Beer (1959) Fed.Proc. 18, 412.

[3] = system: thermal pain; test: Tail flick test (analgesia); format: in vivo, female albino mice NMRI; settings: Mus musculus; oral; dose which prolongs the reaction time by 50%; mice; read-out: Analgesic action, tail flick test ED50
Description: as §1
(a) Tail flick test: Albino mice are exposed to thermal pain, from a focused heat ray, at the tail root, and the time which elapses before the tail is drawn away is recorded. This time is usually in the range of from 4 to 5 seconds. The substances tested cause a delayed reaction to the thermal pain, that is a reduced thermal pain reaction. The dose which prolongs the reaction time by 50% is determined. Literature: D'Amour, F. E., and Smith, D. L., (1941) J. Pharmacol. Exp. Ther. 72, 74.

[4] = Determination of the lethal effect (acute toxicity); design: species or system female albino mice NMRI; settings: mouse, in vivo; oral; mice; observation time 7 days
Description: as §1
The mice were given food (Altromin®) and water ad libitum. The substances to be tested were administered orally as solutions of varying concentration in a volume of from 10 to 20 ml/kg using a stomach tube; 5 animals per dose were kept in Macrolon cages, type II. The observation time was 7 days. […] Literature: Litchfield and Wilkoxon ([…]) J. Pharm. Exp. Therap. 96/2, 99.

[5] = read-out: Antiptotic action, Reserpine antagonism ED50, oral, 5 hours after administration, reserpine 2 mg/kg s.c., mice
[6] = oral, 6 hours after administration, reserpine 2 mg/kg s.c., mice, read-out: Antiptotic action, Reserpine antagonism ED50, 6 hours after administration
[7] = oral, 7 hours after administration, reserpine 2 mg/kg s.c., mice, read-out: Antiptotic action, Reserpine antagonism ED50, 7 hours after administration
[8] = oral, 30 minutes before acetic acid, dose which reduces writhes by 50%, mice
[9] = po, 5 h, read-out: Antiptotic action, Reserpine antagonism ED50, 5 hours after administration
[10] = po, 6 h, read-out: Antiptotic action, Reserpine antagonism ED50, 6 hours after administration
[11] = po, 7 h, read-out: Antiptotic action, Reserpine antagonism ED50, 7 hours after administration

For `CN(C)CCCN1c2ccccc2CCc2ccccc21` [Serial No. 1, Imipramine, reference compound], the ED50 [1, 5] was 18 mg/kg, the ED50 [1, 6] was 50 mg/kg and the ED50 [1, 7] was 100 mg/kg. For the same molecule, the ED50 [2, 8] was > 100 mg/kg and the ED50 [3] was > 50 mg/kg.
`CC(C)(C)N1CCC(Oc2ccc([N+](=O)[O-])cc2)(c2ccccc2)CC1` [Serial No. 9, 1-(tert.-Butyl)-4-(4-nitrophenoxy)-4-phenylpiperidine] showed an ED50 ([2]; po) of 10 mg/kg.
`CN1CCC(Oc2ccccc2)(c2ccccc2)CC1` [compound 2] gave an ED50 [1, 9] of 2.1 mg/kg, an ED50 [1, 10] of 2.7 mg/kg and an ED50 [1, 11] of 4 mg/kg. For the same molecule, the LD50 at 168 h [4] was 220 mg/kg and the ED50 [3] was 35 mg/kg.
With `CN1CCC(Oc2ccc([N+](=O)[O-])cc2)(c2ccccc2)CC1` [compound 3] the ED50 [1, 9] was 0.7 mg/kg, the ED50 [1, 10] was 2 mg/kg and the ED50 [1, 11] was 5.8 mg/kg. For the same molecule, the LD50 at 168 h [4] was 140 mg/kg and the ED50 [3] was 50 mg/kg.
With `CN1CCC(Cc2ccccc2)(Oc2ccc(N)cc2)CC1` [compound 4] the ED50 [1, 5] was 9.5 mg/kg, the ED50 [1, 6] was 24 mg/kg and the ED50 [1, 7] was 50 mg/kg. It also gave an LD50 at 168 h [4] of 180 mg/kg, an ED50 [2, 8] of 27 mg/kg and an ED50 [3] of 2 mg/kg.
Work on `CN1CCC(Oc2ccc(N)cc2)(c2ccccc2)CC1` [compound 5] yielded an ED50 [1, 9] of 0.7 mg/kg, an ED50 [1, 10] of 3 mg/kg and an ED50 [1, 11] of 10 mg/kg. It also gave an LD50 at 168 h [4] of 160 mg/kg, an ED50 ([2]; po) of 7 mg/kg and an ED50 [3] of 12 mg/kg.
With `CN1CCC(Cc2ccccc2)(Oc2ccc([N+](=O)[O-])cc2)CC1` [compound 6] the LD50 at 168 h [4] was 290 mg/kg, the ED50 [2, 8] was 35 mg/kg and the ED50 [3] was > 75 mg/kg.
`CN1CCC(Cc2ccccc2)(Oc2ccccc2)CC1` [compound 7] gave an LD50 at 168 h [4] of 300 mg/kg, an ED50 [2, 8] of 27 mg/kg and an ED50 [3] of 55 mg/kg.
With `c1ccc(OC2(c3ccccc3)CCNCC2)cc1` [compound 8] the ED50 [1, 5] was ~25 mg/kg, the ED50 [1, 6] was > 50 mg/kg and the ED50 [1, 7] was > 50 mg/kg. The LD50 at 168 h [4] was > 200 mg/kg, the ED50 [2, 8] was 50 mg/kg and the ED50 [3] was 25 mg/kg.
With `CC(=O)Nc1ccc(OC2(c3ccccc3)CCN(C)CC2)cc1` [compound 10] the ED50 [1, 9] was < 10 mg/kg, the ED50 [1, 10] was < 10 mg/kg and the ED50 [1, 11] was < 10 mg/kg. For the same molecule, the LD50 at 168 h [4] was 100 to 200 mg/kg, the ED50 ([2]; po) was 10 mg/kg and the ED50 [3] was 12.5 mg/kg.
